For data set [1], the target named is T1, ATP-dependent translocase ABCB1 (Homo sapiens, UniProt P08183). Briefly: TP_TRANSPORTER: Western blot, HK-2 cells. The data set is classed as functional, cell-based. (In western blotting, separated proteins are transferred to a membrane and probed.)
The target of data set [2] is T1, ATP-dependent translocase ABCB1. Briefly: TP_TRANSPORTER: RT-PCR in HK-2 cell. The data set is classed as functional, cell-based.

T1 sequence (P08183 whole entry): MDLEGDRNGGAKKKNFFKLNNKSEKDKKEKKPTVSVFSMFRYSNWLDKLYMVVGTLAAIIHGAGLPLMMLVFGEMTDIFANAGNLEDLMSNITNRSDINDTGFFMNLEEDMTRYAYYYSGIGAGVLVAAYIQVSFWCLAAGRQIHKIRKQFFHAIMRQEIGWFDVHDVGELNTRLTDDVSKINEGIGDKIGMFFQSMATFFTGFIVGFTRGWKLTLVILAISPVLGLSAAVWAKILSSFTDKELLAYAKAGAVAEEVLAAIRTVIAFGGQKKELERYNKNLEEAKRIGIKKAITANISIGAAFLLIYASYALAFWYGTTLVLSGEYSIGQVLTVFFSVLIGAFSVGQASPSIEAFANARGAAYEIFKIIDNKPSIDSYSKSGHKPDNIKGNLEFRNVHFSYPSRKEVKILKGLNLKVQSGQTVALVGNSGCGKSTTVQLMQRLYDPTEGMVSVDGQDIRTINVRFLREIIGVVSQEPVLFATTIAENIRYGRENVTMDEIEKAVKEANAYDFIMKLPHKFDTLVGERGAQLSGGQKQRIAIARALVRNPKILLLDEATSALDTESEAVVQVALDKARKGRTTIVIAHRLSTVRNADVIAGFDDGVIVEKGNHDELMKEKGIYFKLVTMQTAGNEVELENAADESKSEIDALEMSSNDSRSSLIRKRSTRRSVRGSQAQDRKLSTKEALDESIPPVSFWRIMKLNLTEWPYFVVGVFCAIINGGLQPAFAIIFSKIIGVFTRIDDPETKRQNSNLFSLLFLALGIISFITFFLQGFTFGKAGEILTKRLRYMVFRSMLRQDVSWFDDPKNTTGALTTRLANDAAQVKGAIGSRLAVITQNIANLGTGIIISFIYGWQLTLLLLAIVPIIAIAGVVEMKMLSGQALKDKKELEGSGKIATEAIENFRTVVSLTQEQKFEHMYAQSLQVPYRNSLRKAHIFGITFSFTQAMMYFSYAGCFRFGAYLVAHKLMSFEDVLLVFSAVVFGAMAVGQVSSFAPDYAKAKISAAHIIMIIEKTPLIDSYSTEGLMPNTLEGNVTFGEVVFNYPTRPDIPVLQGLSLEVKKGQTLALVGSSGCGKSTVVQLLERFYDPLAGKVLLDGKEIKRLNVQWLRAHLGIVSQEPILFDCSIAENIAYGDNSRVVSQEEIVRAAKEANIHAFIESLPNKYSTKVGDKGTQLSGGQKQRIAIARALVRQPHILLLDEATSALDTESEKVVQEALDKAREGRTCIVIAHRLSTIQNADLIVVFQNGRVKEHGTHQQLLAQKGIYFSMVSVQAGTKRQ

Take `CC(=O)Nc1ccc2c(c1)Cc1ccccc1-2` [2-ACETYLAMINOFLUORENE]: the Activity entry in data set [1] and in data set [2] was “inducer [Decrease]” in each case.

For `CCCCCCCCCCCCCCCCOC[C@H](COP(=O)([O-])OCC[N+](C)(C)C)OC(C)=O` [PLATELET ACTIVATING FACTOR], the Activity result in data set [1] and in data set [2] was “inducer [+]” each time.

Turning to `CN/C(=N/CCSCc1nc[nH]c1C)NC#N` [CIMETIDINE], the Activity entry in data set [1] and in data set [2] was “is not an inducer [-]” throughout.

With `CC(=O)[C@H]1CC[C@H]2[C@@H]3CCC4=CC(=O)CC[C@]4(C)[C@H]3CC[C@]12C` [PROGESTERONE], the Activity result in data set [1] and in data set [2] was “is not an inducer [-]” throughout.

For `Cc1ccc2cc3c(ccc4ccccc43)c3c2c1CC3` [3-METHYLCHOLANTHRENE], the Activity entry in data set [1] was “inducer [Decrease]”.

For the molecule `C[C@]12CCC(=O)C=C1CC[C@@H]1[C@@H]2[C@@H](O)C[C@]2(C=O)[C@@H](C(=O)CO)CC[C@@H]12` [ALDOSTERONE], the Activity entry in data set [1] is “inducer [+]”.

Regarding `COc1ccc(CCN(C)CCCC(C#N)(c2ccc(OC)c(OC)c2)C(C)C)cc1OC` (stereo unspecified), the Activity entry in data set [1] and in data set [2] was “is not an inducer [-]” in each case.

As for `COc1cc(Cc2cnc(N)nc2N)cc(OC)c1OC` [TRIMETHOPRIM], the Activity result in data set [1] and in data set [2] was “is not an inducer [-]” throughout.

Consider `C[C@@H]1C[C@H]2[C@@H]3CCC4=CC(=O)C=C[C@]4(C)[C@@]3(F)[C@@H](O)C[C@]2(C)[C@@]1(O)C(=O)CO` [DEXAMETHASONE], for which the Activity result in data set [1] and in data set [2] was “inducer [+]” throughout.
